The nature of assay [1]: Stabilization of fluorescein-labelled amyloidogenic full length immunoglobulin light chain dimer T46L/F49Y mutant (unknown origin) assessed as concentration of stabilizer that affords 50% maximal proteinase K protection by protease coupled fluorescence polarization assay. Also noted: species or system Homo sapiens. A general note: In fluorescence polarisation assays a small probe gives low polarisation when free and higher when bound to something large.

Assay [2] can be described thus: Stabilization of fluorescein-labelled amyloidogenic full length immunoglobulin light chain dimer (unknown origin) assessed as concentration of stabilizer that affords 50% maximal proteinase K protection by protease coupled fluorescence polarization assay. Further details: species or system Homo sapiens.
The species named for a further assay is Homo sapiens. Kind of assay: Stabilization of unlabeled amyloidogenic full length immunoglobulin light chain dimer (unknown origin) assessed as fold proteinase K protection at 10 uM by size-exclusion chromatography. (In general: In gel filtration, larger molecules generally elute earlier.)

14 compounds from ChEMBL document CHEMBL5131456, “Amyloidogenic immunoglobulin light chain kinetic stabilizers comprising a simple urea linker module reveal a novel binding sub-site” (Bioorg Med Chem Lett, 2022) can be followed below.

pEC50: −log10 of the molar value.

In general, pEC50 refers to −log10 of the EC50, conventionally taken in molar units. Take `CCN(CC)c1ccc2c(C)c(CCNC(=O)NCc3ccccc3)c(=O)oc2c1`: the pEC50 in assay [1] was 6.42; in assay [2] it was 6.46. Besides, the fold change (FC) in the assay filed under Homo sapiens stood at 0.69.
Taken in the same sequence, the figures for `CCN(CC)c1ccc2c(C)c(CCNC(=O)NCc3cccc(-c4c[nH]cn4)c3)c(=O)oc2c1` were 7.13, 6.85 and 0.81.
Regarding `CCN(CC)c1ccc2c(C)c(CCOC(=O)NCc3cccc(-c4c[nH]cn4)c3)c(=O)oc2c1`, the fold change (FC) in the assay listed under Homo sapiens came out at 0.91.
In the case of `CCN(CC)c1ccc2c(C)c(CCNC(=O)NCCc3cccnc3)c(=O)oc2c1`, the values for the pEC50 in assay [1] and in assay [2] were 5.69 and 5.98, respectively. The fold change (FC) in the assay filed under Homo sapiens is 0.5.
Regarding `CCN(CC)c1ccc2c(C)c(CCNC(=O)NCc3cccnc3)c(=O)oc2c1`, the pEC50 was 6.09 in assay [1] and 6.34 in assay [2]. For the same compound, the fold change (FC) in the assay filed under Homo sapiens amounted to 0.66.
As to `CCN(CC)c1ccc2c(C)c(CCNC(=O)NCc3cncc4ccccc34)c(=O)oc2c1`, the pEC50 is 6.42 in assay [1] and 6.63 in assay [2]. Also, the fold change (FC) in the assay filed under Homo sapiens stood at 0.74.
For the compound `CCN(CC)c1ccc2c(C)c(CC(=O)NCCN(C)C)c(=O)oc2c1`, the pEC50 in assay [1] is 5.58; in assay [2], 5.76. In addition, in the assay listed under Homo sapiens, the fold change (FC) amounted to 0.39.
As for `CCN(CC)c1ccc2c(C)c(CCC(=O)NCCc3cccnc3)c(=O)oc2c1`, the pEC50 is 5.68 in assay [1] and 6.20 in assay [2]. Moreover, the fold change (FC) in the assay filed under Homo sapiens turned out to be 0.61.
The corresponding values for `CCN(CC)c1ccc2c(C)c(CCNC(=O)NCc3ccc4ccccc4c3)c(=O)oc2c1` are 7.56, 6.95 and 0.66.
Taken in the same sequence, the figures for `CCN(CC)c1ccc2c(C)c(CCNC(=O)CCc3cccnc3)c(=O)oc2c1` were 5.79, 5.93 and 0.55.
The corresponding values for `CCN(CC)c1ccc2c(C)c(CC(=O)NCCc3ccccc3)c(=O)oc2c1` are 6.07, 5.74 and 0.28.
As to `CCN(CC)c1ccc2c(C)c(CCC(=O)NCCN(C)C)c(=O)oc2c1`, the pEC50 was below 5.00 in assay [1] and 5.17 in assay [2]. Further, the fold change (FC) in the assay filed under Homo sapiens was 0.13.
As for `CCN(CC)c1ccc2c(C)cc(=O)oc2c1`, in the assay listed under Homo sapiens, the fold change (FC) was found to be 0.28.
With `CCN(CC)c1ccc2c(C)c(CCNC(=O)CCc3ccccc3)c(=O)oc2c1`, the figures for the pEC50 in assay [1] and in assay [2] were 6.29 and 6.31, respectively. Moreover, the fold change (FC) in the assay filed under Homo sapiens came to 0.17.
